Data published in ChEMBL document CHEMBL4321845, “Discovery and Characterization of Potent Pan-Genotypic HCV NS5A Inhibitors Containing Novel Tricyclic Central Core Leading to Clinical Candidate” (J Med Chem, 2019).

How the values were obtained:
CYP3A4 = CYP3A4 (Homo sapiens, UniProt P08684); experiment: Inhibition of CYP3A4 in pooled human liver microsomes at 10 uM pre-incubated for 5 mins before NADPH addition and measured after 10 mins by UPLC-MS/MS analysis relative to control; format: ADME
[1] = AUC(last) in beagle dog at 1 mg/kg, iv measured up to 24 hrs by LC-MS/MS analysis; format: ADME, organism-based, Canis lupus familiaris; set-up: dose 1 mg/kg, route intravenous, time 0 - last; conditions: in vivo
[2] = Half life in beagle dog at 1 mg/kg, iv measured up to 24 hrs by LC-MS/MS analysis; format: ADME, organism-based, Canis lupus familiaris; conditions: in vivo
[3] = Half life in rat at 1 mg/kg, iv measured up to 24 hrs by LC-MS/MS analysis; format: ADME, organism-based; conditions: in vivo
[4] = Drug metabolism in human liver microsomes assessed as metabolic rate at 1 uM preincubated for 5 mins before NADPH addition and measured up to 30 mins by LC-MS/MS analysis; format: ADME, Microsome; conditions: 0.5 h
[5] = Oral bioavailability in beagle dog at 10 mg/kg measured up to 24 hrs by LC-MS/MS analysis; format: ADME, organism-based, Canis lupus familiaris; conditions: in vivo
[6] = Oral bioavailability in rat at 10 mg/kg measured up to 24 hrs by LC-MS/MS analysis; format: ADME, organism-based; conditions: in vivo
[7] = Drug level in liver of Wistar rat at 10 mg/kg, po measured up to 8 hrs by LC-MS/MS analysis; format: ADME, organism-based; conditions: in vivo
[8] = Cytotoxicity in human HepG2 cells assessed as inhibition of cell growth at 3 uM incubated for 72 hrs by CCK8 assay relative to control; format: cell-based; conditions: read-out: GI
[9] = Drug metabolism in rat liver microsomes assessed as metabolic rate at 1 uM preincubated for 5 mins before NADPH addition and measured up to 30 mins by LC-MS/MS analysis; format: ADME, Microsome; conditions: 0.5 h
[10] = Volume of distribution at steady state in rat at 1 mg/kg, iv measured up to 24 hrs by LC-MS/MS analysis; format: ADME, organism-based; conditions: in vivo, read-out: Vdss
CYP2D6 = CYP2D6 (Homo sapiens, UniProt P10635); experiment: Inhibition of CYP2D6 in pooled human liver microsomes at 10 uM pre-incubated for 5 mins before NADPH addition and measured after 10 mins by UPLC-MS/MS analysis relative to control; format: ADME
[11] = Tmax in rat at 10 mg/kg, po measured up to 24 hrs by LC-MS/MS analysis; format: ADME, organism-based; conditions: in vivo
[12] = Cmax in rat at 30 mg/kg, po measured up to 24 hrs by LC-MS/MS analysis; format: ADME, organism-based; set-up: dose 30 mg/kg, route oral; conditions: in vivo
[13] = Protein binding in rat plasma; format: ADME, cell-free; conditions: read-out: PPB
[14] = Cytotoxicity in human HepG2 cells assessed as inhibition of cell growth at 10 uM incubated for 72 hrs by CCK8 assay relative to control; format: cell-based; conditions: read-out: GI
[15] = Cytotoxicity in human HEK293 cells assessed as inhibition of cell growth at 10 uM incubated for 72 hrs by CCK8 assay relative to control; format: cell-based; conditions: read-out: GI
[16] = Toxicity in beagle dog assessed as induction of emesis at 10 mg/kg measured up to 24 hrs; format: organism-based, Canis lupus familiaris; conditions: in vivo
[17] = Cytotoxicity in human HuH7 cells assessed as inhibition of cell growth at 3 uM incubated for 72 hrs by CCK8 assay relative to control; format: cell-based, Huh-7; conditions: read-out: GI
[18] = Clearance in beagle dog at 1 mg/kg, iv measured up to 24 hrs by LC-MS/MS analysis; format: ADME, organism-based, Canis lupus familiaris; conditions: in vivo
[19] = AUC(last) in rat at 1 mg/kg, iv measured up to 24 hrs by LC-MS/MS analysis; format: ADME, organism-based; set-up: dose 1 mg/kg, route intravenous, time 0 - last; conditions: in vivo
[20] = AUC (last) in rat at 10 mg/kg, po measured up to 24 hrs by LC-MS/MS analysis; format: ADME, organism-based; set-up: dose 10 mg/kg, time 0 - last, route oral; conditions: in vivo
[21] = Clearance in rat at 1 mg/kg, iv measured up to 24 hrs by LC-MS/MS analysis; format: ADME, organism-based; conditions: in vivo
[22] = Drug level in plasma of Wistar rat at 10 mg/kg, po measured at 4 hrs by LC-MS/MS analysis; format: ADME, organism-based
[23] = Protein binding in human plasma; format: ADME, cell-free; conditions: read-out: PPB
[24] = Tmax in rat at 30 mg/kg, po measured up to 24 hrs by LC-MS/MS analysis; format: ADME, organism-based; conditions: in vivo
[25] = AUC (last) in rat at 100 mg/kg, po measured up to 24 hrs by LC-MS/MS analysis; format: ADME, organism-based; set-up: dose 100 mg/kg, time 0 - last, route oral; conditions: in vivo
[26] = AUC (last) in beagle dog at 10 mg/kg, po measured up to 24 hrs by LC-MS/MS analysis; format: ADME, organism-based, Canis lupus familiaris; set-up: dose 10 mg/kg, time 0 - last, route oral; conditions: in vivo
[27] = Tmax in rat at 100 mg/kg, po measured up to 24 hrs by LC-MS/MS analysis; format: ADME, organism-based; conditions: in vivo
[28] = Volume of distribution at steady state in beagle dog at 1 mg/kg, iv measured up to 24 hrs by LC-MS/MS analysis; format: ADME, organism-based, Canis lupus familiaris; conditions: in vivo, read-out: Vdss
[29] = Drug level in liver of Wistar rat at 10 mg/kg, po measured at 4 hrs by LC-MS/MS analysis; format: ADME, organism-based; conditions: read-out: Drug uptake
[30] = Cmax in beagle dog at 10 mg/kg, po measured up to 24 hrs by LC-MS/MS analysis; format: ADME, organism-based, Canis lupus familiaris; set-up: dose 10 mg/kg, route oral; conditions: in vivo
CYP2C9 = CYP2C9 (Homo sapiens, UniProt P11712); experiment: Inhibition of CYP2C9 in pooled human liver microsomes at 10 uM pre-incubated for 5 mins before NADPH addition and measured after 10 mins by UPLC-MS/MS analysis relative to control; format: ADME
[31] = Cmax in rat at 100 mg/kg, po measured up to 24 hrs by LC-MS/MS analysis; format: ADME, organism-based; set-up: dose 100 mg/kg, route oral; conditions: in vivo
[32] = Cytotoxicity in human HEK293 cells assessed as inhibition of cell growth at 3 uM incubated for 72 hrs by CCK8 assay relative to control; format: cell-based; conditions: read-out: GI
[33] = Ratio of dug level in liver to plasma of Wistar rat at 10 mg/kg, po measured at 4 hrs by LC-MS/MS analysis; format: ADME, organism-based
[34] = Cmax in rat at 10 mg/kg, po measured up to 24 hrs by LC-MS/MS analysis; format: ADME, organism-based; set-up: dose 10 mg/kg, route oral; conditions: in vivo
[35] = AUC (last) in rat at 30 mg/kg, po measured up to 24 hrs by LC-MS/MS analysis; format: ADME, organism-based; set-up: dose 30 mg/kg, time 0 - last, route oral; conditions: in vivo

Sequence of CYP2C9 (P11712 whole entry): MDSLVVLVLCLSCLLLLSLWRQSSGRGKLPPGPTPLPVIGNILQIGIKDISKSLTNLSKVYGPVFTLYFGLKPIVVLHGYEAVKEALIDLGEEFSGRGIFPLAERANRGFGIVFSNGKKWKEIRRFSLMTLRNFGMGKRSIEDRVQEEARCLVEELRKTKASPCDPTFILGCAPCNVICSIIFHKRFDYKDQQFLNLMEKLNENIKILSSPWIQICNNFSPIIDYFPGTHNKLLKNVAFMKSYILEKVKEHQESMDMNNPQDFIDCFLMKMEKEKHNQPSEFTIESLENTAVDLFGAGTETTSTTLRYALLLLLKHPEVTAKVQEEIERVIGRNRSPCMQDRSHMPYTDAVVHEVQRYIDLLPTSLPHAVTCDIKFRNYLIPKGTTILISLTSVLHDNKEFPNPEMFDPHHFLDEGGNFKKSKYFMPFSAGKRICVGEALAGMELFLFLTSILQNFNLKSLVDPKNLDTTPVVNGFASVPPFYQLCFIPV
Sequence of CYP3A4 (P08684 whole entry): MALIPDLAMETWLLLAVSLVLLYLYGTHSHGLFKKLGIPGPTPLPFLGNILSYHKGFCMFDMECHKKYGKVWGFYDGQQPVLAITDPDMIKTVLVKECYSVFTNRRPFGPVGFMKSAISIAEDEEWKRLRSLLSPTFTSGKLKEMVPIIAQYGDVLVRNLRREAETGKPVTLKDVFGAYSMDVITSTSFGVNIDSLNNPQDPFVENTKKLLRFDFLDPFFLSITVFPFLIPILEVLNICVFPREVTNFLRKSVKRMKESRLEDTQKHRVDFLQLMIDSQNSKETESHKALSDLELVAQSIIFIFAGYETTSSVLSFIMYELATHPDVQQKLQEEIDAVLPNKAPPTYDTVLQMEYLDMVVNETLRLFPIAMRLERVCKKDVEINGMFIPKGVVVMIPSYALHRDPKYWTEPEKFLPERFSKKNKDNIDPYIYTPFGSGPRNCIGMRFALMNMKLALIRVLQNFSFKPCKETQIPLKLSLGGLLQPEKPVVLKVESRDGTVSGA
Sequence of CYP2D6 (P10635 whole entry): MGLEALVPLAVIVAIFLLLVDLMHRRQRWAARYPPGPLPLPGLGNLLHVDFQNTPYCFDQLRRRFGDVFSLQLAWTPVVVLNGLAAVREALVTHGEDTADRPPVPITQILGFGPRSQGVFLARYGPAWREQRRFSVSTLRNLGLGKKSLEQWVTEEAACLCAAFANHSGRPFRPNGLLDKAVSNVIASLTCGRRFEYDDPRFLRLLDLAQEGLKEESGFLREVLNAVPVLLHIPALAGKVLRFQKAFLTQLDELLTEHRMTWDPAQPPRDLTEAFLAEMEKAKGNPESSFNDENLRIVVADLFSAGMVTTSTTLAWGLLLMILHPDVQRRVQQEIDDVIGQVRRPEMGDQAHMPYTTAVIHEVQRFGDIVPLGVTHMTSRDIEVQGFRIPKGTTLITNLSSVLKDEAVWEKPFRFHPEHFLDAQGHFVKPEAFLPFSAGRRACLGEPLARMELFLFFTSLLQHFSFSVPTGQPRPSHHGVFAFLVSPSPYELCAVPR

inhibition at 10 min, 10 µM (CYP3A4): 56% | AUC(0-t) at 24 h [1]: 4 µM·h | half-life [2]: 4 h | half-life [3]: 1.5 h | Drug metabolism [4]: 0.01 nmol/min/mg | bioavailability [5]: 37 to 100% | bioavailability [6]: 30% | Drug uptake [7]: Active | Drug metabolism [9]: 0.01 nmol/min/mg | Vd [10]: 1.1 L/kg | inhibition at 10 min, 10 µM (CYP2D6): 36% | Tmax [11]: 0.25 to 2 h | Cmax [12]: 14 µM | fraction unbound [13]: < 0.01 | clearance [18]: 0.3 L/h/kg | AUC(0-t) at 24 h [19]: 2 µM·h | AUC(0-t) at 24 h [20]: 6 to 24 µM·h | clearance [21]: 0.6 L/h/kg | concentration at 4 h [22]: 1.25 µM | fraction unbound [23]: < 0.01 | Tmax [24]: 1 to 4 h | AUC(0-t) at 24 h [25]: 468 µM·h | AUC(0-t) at 24 h [26]: 11 to 93 µM·h | Tmax [27]: 2 to 4 h | Vd [28]: 1 L/kg | concentration at 4 h [29]: 7.4 µM | Cmax [30]: 6 µM | inhibition at 10 min, 10 µM (CYP2C9): 35% | Cmax [31]: 43 µM | Kp at 4 h [33]: 6 | Cmax [34]: 1.6 to 6 µM | AUC(0-t) at 24 h [35]: 77 µM·h
SMILES: COC(=O)N[C@H](C(=O)N1CCC[C@H]1c1ncc(-c2ccc3c(c2)CCc2cc(-c4cnc([C@@H]5CCCN5C(=O)[C@@H](NC(=O)OC)C(C)C)[nH]4)sc2-3)[nH]1)C(C)C
inhibition at 72 h, 3 µM [8]: 0% | inhibition at 72 h, 10 µM [14]: 6% | inhibition at 72 h, 10 µM [15]: 28% | Activity [16]: Toxic | inhibition at 72 h, 3 µM [17]: 2% | inhibition at 72 h, 3 µM [32]: 2%
